From US20250051260A1, “METHOD FOR PREPARING 4-NITRO-2-(TRIFLUOROMETHYL)ACETOPHENONE AND APPLICATION THEREOF” (MAXUNITECH INC., priority 2022, published 2025)

What was measured:
Test in all cases: Petri dish test for herbicide bioactivity (NY/T 1155.1-2006)
Type in all cases: in vivo
Conditions in all cases: 7 days after treatment
Chenopodium album L. = tested on: Chenopodium album L.
From the text: (§1) Test standard:NY/T 1155.1-2006 Pesticides guidelines for laboratory bioactivity tests. Part 1:Petri dish test for herbicide bioactivity
(§2) Targets: Echinochloa crusgalli (L.) Beauv, Panicum acroanthum Steud., Solanum nigrum L., Chenopodium album L.
(§3) Test agent:ethyl 2-(4-nitro-2-trifluoromethylphenyl)-2-cyanopropanoate prepared in Example 1
(§4) The test agent was weighed and dissolved in DMF to obtain a mother liquor. different amounts of mother liquor were weighed and diluted into water to prepare different doses of the test agent.
(§5) Test method:Petri dish test
(§6) 1 test agent, 1 CK (clean water control), 4 targets, and 2 replicate tests per treatment were required. Test method includes the following steps:putting two filter papers on a Petri dish with a diameter of 9 cm; adding 8 mL of the prepared test agent of different concentrations; putting 10 uniform weed seeds; and then placing in an incubator (30° C./25° C., light for 12 h/for dark 12 h). After treatment, the growth state of the test target was regularly observed, the comprehensive growth inhibition rate of each agent was visually investigated with CK about 7 days after the treatment, and the number of seedlings, stem length and root length of plants were measured, and the mergence rate, stem length, and root length and inhibition rate were calculated compared with CK.

[1] = tested on: Echinochloa crusgalli (L.) Beauv
From the text: as §1, §2, §3, §4, §5, §6

[2] = tested on: Panicum acroanthum Steud.
From the text: as §1, §2, §3, §4, §5, §6

Solanum nigrum L. = tested on: Solanum nigrum L.
From the text: as §1, §2, §3, §4, §5, §6

CCOC(=O)C(C)(C#N)c1ccc([N+](=O)[O-])cc1C(F)(F)F (stereo not drawn) [ethyl 2-(4-nitro-2-trifluoromethylphenyl)-2-cyanopropanoate]
Emergence rate, inhibition rate (Chenopodium album L.; agent concentration 100): 63.6% | Root length, inhibition rate (Chenopodium album L.; agent concentration 100): 100.0% | Stem length, inhibition rate (Chenopodium album L.; agent concentration 100): 70.4% | Emergence rate, inhibition rate (Chenopodium album L.; agent concentration 500): 100.0% | Root length, inhibition rate (Chenopodium album L.; agent concentration 500): 100.0% | Stem length, inhibition rate (Chenopodium album L.; agent concentration 500): 100.0% | Emergence rate, inhibition rate (Chenopodium album L.; agent concentration 1000): 100.0% | Root length, inhibition rate (Chenopodium album L.; agent concentration 1000): 100.0% | Stem length, inhibition rate (Chenopodium album L.; agent concentration 1000): 100.0% | Emergence rate, inhibition rate ([1]; agent concentration 500): 100.0% | Root length, inhibition rate ([1]; agent concentration 500): 100.0% | Stem length, inhibition rate ([1]; agent concentration 500): 100.0% | Emergence rate, inhibition rate ([1]; agent concentration 1000): 100.0% | Root length, inhibition rate ([1]; agent concentration 1000): 100.0% | Stem length, inhibition rate ([1]; agent concentration 1000): 100.0% | Emergence rate, inhibition rate ([2]; agent concentration 500): 100.0% | Root length, inhibition rate ([2]; agent concentration 500): 100.0% | Stem length, inhibition rate ([2]; agent concentration 500): 100.0% | Emergence rate, inhibition rate ([2]; agent concentration 1000): 100.0% | Root length, inhibition rate ([2]; agent concentration 1000): 100.0% | Stem length, inhibition rate ([2]; agent concentration 1000): 100.0% | Emergence rate, inhibition rate (Solanum nigrum L.; agent concentration 500): 100.0% | Root length, inhibition rate (Solanum nigrum L.; agent concentration 500): 100.0% | Stem length, inhibition rate (Solanum nigrum L.; agent concentration 500): 100.0% | Emergence rate, inhibition rate (Solanum nigrum L.; agent concentration 1000): 100.0% | Root length, inhibition rate (Solanum nigrum L.; agent concentration 1000): 100.0% | Stem length, inhibition rate (Solanum nigrum L.; agent concentration 1000): 100.0%
